Columns and labels:
PARP-1 [1] = target: PARP-1 (Homo sapiens, UniProt P09874); experiment: FACS-based detection of PARP-1 activity (PAR staining) in human monocytes / PBMCs; assay type: cell-based; parameters: endogenous in cells; host or cells: human PBMCs / monocytes / dendritic cells / T and B cells from healthy controls and MS patients
Procedure: FIGS. 11A-B are show the results of FACS-based detection of PARP-1 activity. 11A. a set of five histograms showing PAR staining (as detected by FACS) of PBMCs incubated with 15-HC alone, or in combination with AIQ, blocking antibodies to TLR2 (TLR2 BL), or IC control (TLR2 IC). 11B, a line graph showing the correlation of PAR staining as detected by FACS with PARP-1 enzymatic activity detected on PBMCs activated with different concentration of 15-HC.
14A is a set of fifteen histograms showing PAR staining of PBMCs taken from HC (left column), RRMS (center column) or SPMS (right column) patients and unstimulated (top row) or activated with 15-HC alone (second row), or in combination with AIQ (third row), blocking antibodies to TLR2 (fourth row) or IC control (bottom row). 14B is a bar graph showing the mean fluorescence intensity (MFI)±SD of 5 samples/group from the histograms in 14A.
15A is a set of 24 histograms showing PAR staining of PBMCs taken from HC (left column), RRMS (center column) or SPMS (right column) patients and unstimulated (top row) or activated with pgLPS (second row), polyIC (third row), ecLPS (fourth row), flagellin (row 5), imiquimod (row 6), ssRNA (row 7) or CpG (row 8). 15B is a bar graph showing the mean fluorescence intensity (MFI)±SD of 5 samples/group from the histograms in […].
A new FACS-based method was developed to detect PARP-1 activation based on the intracellular detection of the PARP-1 product PAR with specific antibodies. Briefly, the cells were incubated with antibodies to CD16/32 to block unspecific antibody binding, and then stained for surface markers. After washing, the cells were permeabilized with Fix/Perm (BD), and then stained with rabbit anti-PAR antibodies (or control rabbit IgG) for 30′ at 4° C., followed by anti-rabbit PE for 30′ at room temperature. The samples were then analyzed by FACS.

[2] = tested on: microglia, macrophages or astrocytes; experiment: TNF-α, CCL-2 and NO secretion by microglia, macrophages or astrocytes; assay type: cell-based, mouse; conditions: microglia, macrophages or astrocytes incubated with 15-HC
Procedure: FIGS. 4A-D show the results of activation of microglia, macrophages and astrocytes by 15-HC. 4A, a bar graph showing PARP-1 activity in a cell-free system where recombinant PARP-1 was incubated with DNA which as been pretreated with 15-HC or 7-KC. Non-pretreated DNA was used as a negative control and ssb-DNA as a positive control. Data is shown as Mean±SEM. 4B, a pair of bar graphs showing PARP-1 activity measured in microglia, macrophages or astrocytes incubated with 15-HC or 7-KC. The data is shown as the fold of change between vehicle and lipid-treated cells (Mean±SEM). 4C, a pair of bar graphs showing percent inhibition of PARP-1 activity in microglia, macrophages or astrocytes activated with 15-HC or 7-KC […] in the presence of 5-AIQ. 4D, a table showing levels of TNF-α, CCL-2 and NO secretion by 15-HC or 7-KC treated microglia, macrophages or astrocytes (Mean±SEM).
The effect of 15-HC on the activity of cellular PARP-1 was then investigated. […] Thus, 15-HC activates microglia, macrophages and astrocytes through a PARP-1-dependent mechanism.

PARP-1 [3] = experiment: FACS PARP-1 activity in innate and adaptive immune cells treated with HSP60 or 15-HC; assay type: cell-based, human; conditions: HSP60 1, 5, 10 ng/ml, 15-HC 1, 5, 10 ug/ml
Text: FIGS. 17A-C are bar graphs showing that 15-HC, but not HSP60, activates PARP-1 in cells of the innate immune system. Mean PARP-1 activity as determined by FACS in classical monocytes (17A), inflammatory monocytes (17B) and dendritic cells (17C) of healthy controls (HC) treated with activated with HSP60, 15-HC or left untreated. The data are shown as mean fluorescence intensity (MFI)±SD of 5 samples/group.
FIGS. 18A-C are bar graphs showing that both 15-HC and HSP60 activate PARP-1 in cells of the adaptive immune system. Mean PARP-1 activity as determined by FACS in CD4+ T cells (18A), CD8+ T cells (18B) and B cells (18C) of healthy controls (HC) treated with activated with HSP60, 15-HC or left untreated. The data are shown as mean fluorescence intensity (MFI)±SD of 5 samples/group.
A new FACS-based method was developed to detect PARP-1 activation based on the intracellular detection of the PARP-1 product PAR with specific antibodies. Briefly, the cells were incubated with antibodies to CD16/32 to block unspecific antibody binding, and then stained for surface markers. […] The samples were then analyzed by FACS.
To investigate whether the increased activity of the TLR2/PARP-1 axis in SPMS patients resulted from increased levels of TLR2 ligands, the levels of 15-HC and HSP60 were measured in serum samples from healthy controls, RRMS and SPMS patients. […]

TLR2 = experiment: PARP-1 activity in HEK-293 cells transfected or not with TLR2; assay type: cell-based, human
Text: FIGS. 6A-B are bar graphs showing that PARP-1 activation by 15-HC is mediated by TLR2 A. TLR2 blocking antibody abrogates PARP-1 activation by 15a-HC. 6A, a set of three bar graphs showing PARP-1 activity in microglia, macrophages or astrocytes activated with 15-HC in the presence of blocking antibodies to TLR2 or TLR4, or isotype controls (Mean±SEM). 6B, a bar graph showing PARP-1 activity in HEK-293 cells transfected or not with a plasmid coding for TLR2 and activated with 15-HC (Mean±SEM).

Chain of PARP-1 (Homo sapiens, UniProt P09874) (P09874 whole entry): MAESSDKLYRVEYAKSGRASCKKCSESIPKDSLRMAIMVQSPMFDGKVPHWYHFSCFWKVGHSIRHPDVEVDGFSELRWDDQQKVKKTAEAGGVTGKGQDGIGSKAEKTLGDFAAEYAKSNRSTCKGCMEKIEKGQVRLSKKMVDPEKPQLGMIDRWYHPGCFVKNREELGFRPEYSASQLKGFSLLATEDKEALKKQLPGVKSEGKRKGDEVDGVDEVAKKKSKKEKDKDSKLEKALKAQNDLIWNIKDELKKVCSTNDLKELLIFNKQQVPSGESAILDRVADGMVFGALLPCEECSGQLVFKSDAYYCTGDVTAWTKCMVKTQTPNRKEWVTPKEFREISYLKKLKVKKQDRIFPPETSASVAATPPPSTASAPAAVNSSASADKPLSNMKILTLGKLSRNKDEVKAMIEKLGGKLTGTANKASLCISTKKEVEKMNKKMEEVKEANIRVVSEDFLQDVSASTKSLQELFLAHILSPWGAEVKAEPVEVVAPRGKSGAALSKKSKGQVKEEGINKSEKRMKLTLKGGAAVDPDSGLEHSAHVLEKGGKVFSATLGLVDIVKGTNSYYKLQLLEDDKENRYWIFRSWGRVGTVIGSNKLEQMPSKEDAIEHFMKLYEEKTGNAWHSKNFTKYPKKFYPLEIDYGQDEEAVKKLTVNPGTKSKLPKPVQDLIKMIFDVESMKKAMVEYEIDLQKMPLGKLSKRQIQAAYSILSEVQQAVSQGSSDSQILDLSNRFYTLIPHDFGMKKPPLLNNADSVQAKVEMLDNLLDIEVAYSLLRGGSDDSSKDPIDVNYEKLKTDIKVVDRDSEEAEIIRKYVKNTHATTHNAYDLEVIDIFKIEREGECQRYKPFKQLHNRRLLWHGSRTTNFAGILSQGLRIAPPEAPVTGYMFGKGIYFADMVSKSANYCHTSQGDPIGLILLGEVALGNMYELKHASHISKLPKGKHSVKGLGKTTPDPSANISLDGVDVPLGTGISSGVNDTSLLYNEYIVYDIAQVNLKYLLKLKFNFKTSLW

Substance: 15-hydroxycholestene [15-HC]
- inhibition of 15-HC-induced PARP-1 activation in monocytes from healthy controls, RRMS and SPMS patients (PARP-1 [1]; all three experimental groups): could be inhibited
- PAR staining (FACS) (PARP-1 [1]; human monocytes activated by 15-HC): significant increase
- secretion of NO, CCL-2 and TNF-α [2]: resulted in the secretion
- PARP-1 activation in cells of the adaptive immune system (FIG. 18) (PARP-1 [3]; CD4+ T cells, CD8+ T cells, B cells of healthy controls): could activate
- PARP-1 activation in cells of the innate immune system (FIG. 17) (PARP-1 [3]; classical monocytes, inflammatory monocytes, dendritic cells of healthy controls): only 15-HC could activate
- PARP-1 activity in HEK-293 cells transfected with TLR2 (TLR2; transfected with a plasmid coding for TLR2): significant activation
- PARP-1 activity in HEK-293 cells (TLR2; untransfected, does not express TLR2): no significant effect

— patent publication US20140343095A1, “Methods of Diagnosing and Treating Multiple Sclerosis” (The Brigham and Women's Hospital, Inc., priority 2009, published 2014)
